# Results: patent publication US20040248171A1, “Cancer monitoring by aberrant promotor methylation of the transcription factor genes PAX5 alpha PAX5 beta, novel loop helix loop protein, novel gene 2, and beta 3 genes” (Lovelace Respiratory Research Institute, priority 2001, published 2004)
# Tests used:
# Type in all cases: cell-based, human
# PAX5 β gene expression = assay: RT-PCR analysis for expression of the PAX5 β gene after DAC treatment
# Protocol: (§1) Reverse transcription-PCR (RT-PCR) was conducted on cDNA from three breast cancer cell lines (MCF7, MDA-MB 231, and T47D) and one lung cancer cell line (Calu6) to determine the relationship between methylation of the PAX5 α and β genes and transcription. […] Reference is made to FIG. 3A, showing an MSP analysis of breast and lung cancer cell lines. Bisulfite-modified DNA was amplified with stage-2 primers specific for methylated alleles. […] Expression of the PAX5 α and β genes was restored in non-expressing cell lines following DAC treatment. Expression of the β-actin gene was determined as a control for RNA integrity.
# (§2) 5-Aza-2′-deoxycytidine Treatment and RT-PCR. Re-expression studies were performed using three breast cancer cell lines (MCF7, MDA-MB-23 1, and T47D) and one lung cancer cell line (Calu6). […] The expression of the PAX5 α and β transcripts were determined by reverse transcription (RT)-PCR using the exon 1α forward primer (5′-[…]-3′) and the exon 1β forward primer (5′-[…]-3′) with an exon 2 reverse primer (5′-[…]-3′). β-actin was also amplified as a control for RNA integrity.
# (§3) PCR amplification was performed at 94° C. for 10 min; then 35 cycles of 94° C. for 30 s, 64° C. for 30 s, and 72° C. for 30 s; and a 5-min final extension at 72° C. PCR products were analyzed on a 3% agarose gel containing ethidium bromide and visualized under UV illumination.
# β-actin gene expression = assay: RT-PCR analysis for expression of the housekeeping gene β-actin after DAC treatment; conditions: MCF7, MDA-MB 231, T47D, Calu6 cell lines, 1 μM DAC, 72 h
# Protocol: as §1, §2, §3
# PAX5 α gene expression = assay: RT-PCR analysis for expression of the PAX5 α gene after DAC treatment; conditions: for PAX5 α transcript expression: 1 μM DAC, 72 h
# Protocol: as §1
# 5-Aza-2′-deoxycytidine Treatment and RT-PCR. Re-expression studies were performed using three breast cancer cell lines (MCF7, MDA-MB-23 1, and T47D) and one lung cancer cell line (Calu6). Cell lines were treated for 3 days in culture media with 1 μM DAC (Sigma Chemical Co.). Total RNA was prepared using Trizol (Life Technologies, Inc.), and 3 μg aliquots were reverse-transcribed using the Superscript kit (Life Technologies, Inc.). The expression of the PAX5 α and β transcripts were determined by reverse transcription (RT)-PCR using the exon 1α forward primer (5′-[…]-3′) and the exon 1β forward primer (5′-[…]-3′) with an exon 2 reverse primer (5′-[…]-3′). β-actin was also amplified as a control for RNA integrity.
# as §3
# [1] = non-expressing breast and lung cancer cell lines, 1 μM DAC for 72 h (FIG. 3B)
smiles,measurement,setting,value
"Nc1ncn([C@H]2C[C@H](O)[C@@H](CO)O2)c(=O)n1 [DAC, 5-Aza-2′-deoxycytidine]",Expression of the PAX5 β gene,PAX5 β gene expression; [1],restored
same,PAX5 β transcript expression,"PAX5 β gene expression; the other three cell lines (MCF7, MDA-MB 231, Calu6), 1 μM DAC, 72 h",restored expression
same,expression of the housekeeping gene β-actin,β-actin gene expression,did not affect
same,PAX5 α transcript expression,PAX5 α gene expression; Calu6 lung cancer cell line,increased expression
same,PAX5 α transcript expression,PAX5 α gene expression; MDA-MB231 breast cancer cell line,restored expression
same,PAX5 α transcript expression,PAX5 α gene expression; T47D breast cancer cell line,restored expression
same,Expression of the PAX5 α gene,PAX5 α gene expression; [1],restored
